Results taken from article PMC11131246, “Molecular determinants for brain targeting by peptides: a meta-analysis approach with experimental validation” (Fluids and Barriers of the CNS, 2024).
Blank lines part the entries; values can stand above or below the compound they belong to. Residues, ends and D or L forms follow the SMILES beside them. *: point of attachment. NODAGA = O=C(O)CN1CCN(CC(=O)O)CCN(C(CCC(=O)*)C(=O)O)CC1; CF = 5(6)-carboxyfluorescein

Tests used:
[1] = Biodistribution of 67Ga-radiolabeled peptides; set-up: species or system mouse; conditions: female, CD1, mouse, in vivo, iv, 100 uCi, total radioactivity, Tissue distribution
Description: All animal experiments were performed in compliance with national and EU legislation for good practices on laboratory animal science. The animals were housed in a temperature and humidity-controlled environment with a 12 h light/12 h dark schedule. Biodistribution of radiolabeled peptides was performed on 7 weeks old CD1 female mice.
Animals were intravenously injected into the tail vein with 100 µL of a 25 µM saline solution of the ^67Ga-peptide with a radioactivity around 100 µCi. The mice were euthanized by cervical dislocation at 2 min and 1 h after injection. The dose administered and the radioactivity in the euthanized animals was measured using a dose calibrator (Carpintec CRC-15W, Ramsey, USA). The difference between the radioactivity in the injected and the euthanized animals was assumed to be due to excretion. Brain and tissues of interest without previous perfusion were dissected, washed, and weighed, and their radioactivity was measured using a γ counter (Hidex AMG, Hidex, Turku, Finland). The uptake in the brain and tissues of interest was calculated and expressed as a percentage of injected radioactivity dose per gram of tissue (% ID/g).

[2] = Analytical RP-HPLC retention time (used as indication of hydrophobicity); format: physicochemical; conditions: analytical reverse phase HPLC, UV chromatogram; free and CF-labelled peptides

tissue uptake at 2 min ([1]; Blood): 12.6 ± 2.1 %ID/g
tissue uptake at 1 h ([1]; Blood): 0.5 ± 0.3 %ID/g
tissue uptake at 2 min ([1]; Bone): 3.4 ± 0.3 %ID/g
tissue uptake at 1 h ([1]; Bone): 0.3 ± 0.1 %ID/g
tissue uptake at 2 min ([1]; Brain (brain uptake)): 0.66 ± 0.16 %ID/g
tissue uptake at 1 h ([1]; Brain (brain uptake)): 0.04 ± 0.02 %ID/g
tissue uptake at 2 min ([1]; Heart): 3.4 ± 1 %ID/g
tissue uptake at 1 h ([1]; Heart): 0.3 ± 0.1 %ID/g
tissue uptake at 2 min ([1]; Intestine): 1.7 ± 0.3 %ID/g
tissue uptake at 1 h ([1]; Intestine): 0.2 ± 0.1 %ID/g
tissue uptake at 2 min ([1]; Kidney): 33.8 ± 3.8 %ID/g
tissue uptake at 1 h ([1]; Kidney): 2.4 ± 1.8 %ID/g
tissue uptake at 2 min ([1]; Liver): 4.1 ± 0.8 %ID/g
tissue uptake at 1 h ([1]; Liver): 0.3 ± 0.2 %ID/g
tissue uptake at 2 min ([1]; Lung): 6.1 ± 0.7 %ID/g
tissue uptake at 1 h ([1]; Lung): 2.5 ± 0.3 %ID/g
tissue uptake at 2 min ([1]; Muscle): 2.4 ± 0.2 %ID/g
tissue uptake at 1 h ([1]; Muscle): 0.3 ± 0.1 %ID/g
tissue uptake at 2 min ([1]; Spleen): 2 ± 0.2 %ID/g
tissue uptake at 1 h ([1]; Spleen): 0.2 ± 0.1 %ID/g
tissue uptake at 2 min ([1]; Stomach): 1.4 ± 0.5 %ID/g
tissue uptake at 1 h ([1]; Stomach): 0.1 %ID/g
Compound: CC[C@H](C)[C@H](NC(=O)[C@H](C)NC(=O)CNC(=O)[C@H](CCCCN)NC(=O)[C@H](Cc1ccc(O)cc1)NC(=O)[C@H](CCCCN)NC(=O)CCC(C(=O)O)N1CCN(CC(=O)O)CCN(CC(=O)O)CC1)C(=O)N[C@H](C(=O)NCC(=O)N[C@@H](CC(N)=O)C(=O)N[C@H](C(=O)N[C@@H](CCCCN)C(N)=O)[C@@H](C)CC)[C@@H](C)CC (some centres unmarked) [67Ga-BBBpS_1, metal not drawn] ({NODAGA}-KYKGAIIGNIK-NH2)

tissue uptake at 2 min ([1]; Blood): 13.4 ± 3.8 %ID/g
tissue uptake at 1 h ([1]; Blood): 1.4 ± 0.9 %ID/g
tissue uptake at 2 min ([1]; Bone): 3.1 ± 0.1 %ID/g
tissue uptake at 1 h ([1]; Bone): 0.8 ± 0.5 %ID/g
tissue uptake at 2 min ([1]; Brain (brain uptake)): 0.52 ± 0.23 %ID/g
tissue uptake at 1 h ([1]; Brain (brain uptake)): 0.09 ± 0.03 %ID/g
tissue uptake at 2 min ([1]; Heart): 3.1 ± 0.7 %ID/g
tissue uptake at 1 h ([1]; Heart): 0.8 ± 0.1 %ID/g
tissue uptake at 2 min ([1]; Intestine): 1.5 ± 0.2 %ID/g
tissue uptake at 1 h ([1]; Intestine): 0.4 %ID/g
tissue uptake at 2 min ([1]; Kidney): 18.1 ± 2.1 %ID/g
tissue uptake at 1 h ([1]; Kidney): 1.4 ± 0.6 %ID/g
tissue uptake at 2 min ([1]; Liver): 3.5 ± 1.2 %ID/g
tissue uptake at 1 h ([1]; Liver): 0.6 ± 0.2 %ID/g
tissue uptake at 2 min ([1]; Lung): 6 ± 1.2 %ID/g
tissue uptake at 1 h ([1]; Lung): 1.7 ± 0.4 %ID/g
tissue uptake at 2 min ([1]; Muscle): 2 ± 0.4 %ID/g
tissue uptake at 1 h ([1]; Muscle): 0.7 ± 0.1 %ID/g
tissue uptake at 2 min ([1]; Spleen): 1.9 ± 0.6 %ID/g
tissue uptake at 1 h ([1]; Spleen): 0.5 ± 0.2 %ID/g
tissue uptake at 2 min ([1]; Stomach): 1 ± 0.1 %ID/g
tissue uptake at 1 h ([1]; Stomach): 0.2 ± 0.1 %ID/g
Compound: CC[C@H](C)[C@H](NC(=O)[C@H](C)NC(=O)CNC(=O)[C@H](CO)NC(=O)[C@H](CCCNC(=N)N)NC(=O)[C@H](Cc1ccc(O)cc1)NC(=O)[C@H](CCCCN)NC(=O)CCC(C(=O)O)N1CCN(CC(=O)O)CCN(CC(=O)O)CC1)C(=O)N[C@H](C(=O)N[C@H](C(=O)NCC(=O)N[C@@H](Cc1ccc(O)cc1)C(N)=O)[C@@H](C)CC)[C@@H](C)O (some centres unmarked) [67Ga-BBBpS_2, metal not drawn] ({NODAGA}-KYRSGAITIGY-NH2)

tissue uptake at 2 min ([1]; Blood): 10.7 ± 2.1 %ID/g
tissue uptake at 1 h ([1]; Blood): 1.2 ± 0.3 %ID/g
tissue uptake at 2 min ([1]; Bone): 3.8 ± 0.5 %ID/g
tissue uptake at 1 h ([1]; Bone): 0.6 ± 0.4 %ID/g
tissue uptake at 2 min ([1]; Brain (brain uptake)): 0.74 ± 0.01 %ID/g
tissue uptake at 1 h ([1]; Brain (brain uptake)): 0.05 ± 0.01 %ID/g
tissue uptake at 2 min ([1]; Heart): 3.8 ± 0.8 %ID/g
tissue uptake at 1 h ([1]; Heart): 0.5 %ID/g
tissue uptake at 2 min ([1]; Intestine): 2.2 ± 0.2 %ID/g
tissue uptake at 1 h ([1]; Intestine): 0.4 ± 0.2 %ID/g
tissue uptake at 2 min ([1]; Kidney): 22 ± 3.6 %ID/g
tissue uptake at 1 h ([1]; Kidney): 1.1 ± 0.6 %ID/g
tissue uptake at 2 min ([1]; Liver): 5.2 ± 1.1 %ID/g
tissue uptake at 1 h ([1]; Liver): 1 ± 0.4 %ID/g
tissue uptake at 2 min ([1]; Lung): 7.8 ± 2.8 %ID/g
tissue uptake at 1 h ([1]; Lung): 1.2 ± 0.2 %ID/g
tissue uptake at 2 min ([1]; Muscle): 3.1 ± 0.8 %ID/g
tissue uptake at 1 h ([1]; Muscle): 0.5 ± 0.2 %ID/g
tissue uptake at 2 min ([1]; Spleen): 2.2 ± 0.1 %ID/g
tissue uptake at 1 h ([1]; Spleen): 0.3 ± 0.1 %ID/g
tissue uptake at 2 min ([1]; Stomach): 2.6 %ID/g
tissue uptake at 1 h ([1]; Stomach): 0.3 ± 0.4 %ID/g
Compound: CC[C@H](C)[C@H](NC(=O)[C@H](Cc1c[nH]cn1)NC(=O)CCC(C(=O)O)N1CCN(CC(=O)O)CCN(CC(=O)O)CC1)C(=O)N[C@@H](CCC(N)=O)C(=O)N[C@@H](CC(C)C)C(=O)N[C@@H](CO)C(=O)N1CCC[C@H]1C(=O)N[C@@H](Cc1ccccc1)C(=O)N[C@@H](CO)C(=O)N[C@@H](CCC(N)=O)C(=O)N[C@@H](CO)C(=O)N[C@@H](Cc1c[nH]c2ccccc12)C(=O)N[C@@H](CCCNC(=N)N)C(N)=O (some centres unmarked) [67Ga-BBBpS_5, metal not drawn] ({NODAGA}-HIQLSPFSQSWR-NH2)

tissue uptake at 2 min ([1]; Blood): 11.6 ± 1.5 %ID/g
tissue uptake at 1 h ([1]; Blood): 0.8 ± 0.4 %ID/g
tissue uptake at 2 min ([1]; Bone): 3.4 ± 0.3 %ID/g
tissue uptake at 1 h ([1]; Bone): 0.5 ± 0.1 %ID/g
tissue uptake at 2 min ([1]; Brain (brain uptake)): 0.61 ± 0.11 %ID/g
tissue uptake at 1 h ([1]; Brain (brain uptake)): 0.05 ± 0.01 %ID/g
tissue uptake at 2 min ([1]; Heart): 3.3 ± 0.1 %ID/g
tissue uptake at 1 h ([1]; Heart): 0.3 %ID/g
tissue uptake at 2 min ([1]; Intestine): 1.9 ± 0.2 %ID/g
tissue uptake at 1 h ([1]; Intestine): 0.2 %ID/g
tissue uptake at 2 min ([1]; Kidney): 30 ± 3.7 %ID/g
tissue uptake at 1 h ([1]; Kidney): 3.1 ± 0.3 %ID/g
tissue uptake at 2 min ([1]; Liver): 4.7 ± 0.4 %ID/g
tissue uptake at 1 h ([1]; Liver): 2.6 ± 0.3 %ID/g
tissue uptake at 2 min ([1]; Lung): 5.4 ± 0.6 %ID/g
tissue uptake at 1 h ([1]; Lung): 0.7 ± 0.1 %ID/g
tissue uptake at 2 min ([1]; Muscle): 2.6 ± 0.3 %ID/g
tissue uptake at 1 h ([1]; Muscle): 0.2 ± 0.1 %ID/g
tissue uptake at 2 min ([1]; Spleen): 2.6 ± 0.3 %ID/g
tissue uptake at 1 h ([1]; Spleen): 0.9 ± 0.2 %ID/g
tissue uptake at 2 min ([1]; Stomach): 1.5 ± 0.2 %ID/g
tissue uptake at 1 h ([1]; Stomach): 0.3 ± 0.1 %ID/g
Compound: CC(C)C[C@H](NC(=O)[C@H](Cc1c[nH]c2ccccc12)NC(=O)[C@H](Cc1ccccc1)NC(=O)[C@H](CCC(N)=O)NC(=O)[C@H](C)NC(=O)[C@H](CO)NC(=O)[C@H](CC(=O)O)NC(=O)[C@@H]1CCCN1C(=O)[C@H](CCCNC(=N)N)NC(=O)[C@H](CC(N)=O)NC(=O)CCC(C(=O)O)N1CCN(CC(=O)O)CCN(CC(=O)O)CC1)C(=O)N[C@@H](Cc1c[nH]cn1)C(=O)N[C@@H](Cc1c[nH]cn1)C(N)=O (some centres unmarked) [67Ga-BBBpS_9, metal not drawn] ({NODAGA}-NRPDSAQFWLHH-NH2)

Compound: CF-APWHLSSQYSRT-amide ({CF}-APWHLSSQYSRT-NH2) [CF-CTP, 5(6)-carboxyfluorescein-labelled CTP]
HPLC tR [2]: 8.45 min

HPLC tR [2]: 7.95 min
Compound: CF-EEGRLYMRYYSPTTRRYG-amide [CF-CPP(II), 5(6)-carboxyfluorescein-labelled CPP(II)]

HPLC tR [2]: 9.50 min
Compound: CF-HIQLSPFSQSWR-amide [CF-HAP-2, 5(6)-carboxyfluorescein-labelled HAP-2]

Compound: CF-KKKKQPPKPKKPKTQEKKKKQPPKPKR-amide [CF-P1746c27, 5(6)-carboxyfluorescein-labelled P1746c27]
HPLC tR [2]: 4.23 min

Compound: CF-KWCFRVCYRGICYRRCR-amide [CF-TI, 5(6)-carboxyfluorescein-labelled TI]
HPLC tR [2]: 8.11 min

HPLC tR [2]: 7.05 min
Compound: CF-KYKGAIIGNIK-amide [CF-A, 5(6)-carboxyfluorescein-labelled A]

HPLC tR [2]: 7.62 min
Compound: CF-KYRSGAITIGY-amide [CF-B, 5(6)-carboxyfluorescein-labelled B]

HPLC tR [2]: 13.51 min
Compound: CF-LKTLTETLKELTKTLTEL-amide [CF-KLA13, 5(6)-carboxyfluorescein-labelled KLA13]

HPLC tR [2]: 8.01 min
Compound: CF-NRPDSAQFWLHH-amide [CF-Peptide third, 5(6)-carboxyfluorescein-labelled Peptide third]

Compound: CF-RPKPQQFFGLM-amide [CF-SPA, 5(6)-carboxyfluorescein-labelled SPA]
HPLC tR [2]: 9.25 min

HPLC tR [2]: 7.89 min
Compound: CF-YDEEGGGE-amide [CF-YDEGE, 5(6)-carboxyfluorescein-labelled YDEGE]

HPLC tR [2]: 8.63 min
Compound: CF-YKEATSTFTNITYRGT-amide [CF-Peptide b3-1, 5(6)-carboxyfluorescein-labelled Peptide b3-1]

HPLC tR [2]: 8.79 min
Compound: CF-YTQDFNKFHTFPQTAIGVGAP-amide [CF-hCR(12–32), 5(6)-carboxyfluorescein-labelled hCR(12–32)]
